# Measured values as given in patent US6914045B2, “Glycopeptide antibiotics” (Wyeth Holdings Corporation, priority 2001, dated 2005).
# Key:
# Assay in all cases: in vitro antibacterial evaluation, MIC by broth dilution
# Format in all cases: cell-based
# [1] = test system: Escherichia coli; conditions: 18 hours at 35° C.
# [2] = test system: Staphylococcus sp.; conditions: broth dilution, 18 hours at 35° C.
# How it was run: (§1)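 Broth dilution per NCCLS M7-A2 in Mueller-Hinton II medium, inoculum 5×10^5 CFU/mL, antibiotic range 64-0.06 μg/mL. MIC taken as lowest concentration inhibiting growth; Gram-positive panel includes recent clinical isolates resistant to methicillin, penicillin and/or vancomycin.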
# [3] = test system: Streptococcus sp.; conditions: broth dilution, 18 hours at 35° C.
# How it was run: as §1
# [4] = test system: Enterococcus sp.; conditions: broth dilution, 18 hours at 35° C.
# How it was run: as §1
# [5] = test system: Escherichia coli; conditions: 18 hours at 35° C.; remark: listed apart in the source
# How it was run: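 Following National Committee for Clinical Laboratory Standards recommendations (M7-A2), susceptibility was measured by dilution in Muller-Hinton II […]. Bacteria were seeded at 5×10^5 CFU/mL against compound concentrations from 64 down to 0.06 μg/mL.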
smiles,measurement,setting,value
COc1ccc2cc(COC3C(OC4C(CO)OC(Oc5ccc(CC6NC(=O)C(C(C)c7ccccc7)NC(=O)CNC(=O)C(CO)NC(=O)C(CC7CNC(=N)N7C7OC(CO)C(O)C(O)C7O)NC(=O)C(CC7CNC(=N)N7)NC6=O)cc5)C(O)C4O)OC(CO)C(O)C3O)ccc2c1 (stereo not shown) [Example 245c],MIC Escherichia coli (ATCC 25922),[1],>128 µg/mL
same,MIC Escherichia coli (GC 4559),[1],>128 µg/mL
same,MIC Escherichia coli (GC 4560),[1],32 µg/mL
same,MIC Coagulase Negative Staphylococcus (GC 4547),[2],128 µg/mL
same,MIC Coagulase Negative Staphylococcus (GC 4548),[2],128 µg/mL
same,MIC Coagulase Negative Staphylococcus (GC 4549),[2],64 µg/mL
same,MIC Coagulase Negative Staphylococcus (GC 4551),[2],128 µg/mL
same,MIC Coagulase Negative Staphylococcus (GC 6257),[2],64 µg/mL
same,MIC Staphylococcus aureus (ATCC 29213),[2],128 µg/mL
same,MIC Staphylococcus aureus (GC 1131),[2],>128 µg/mL
same,MIC Staphylococcus aureus (GC 3051),[2],128 µg/mL
same,MIC Staphylococcus aureus (GC 3053),[2],>128 µg/mL
same,MIC Staphylococcus aureus (GC 4541),[2],128 µg/mL
same,MIC Staphylococcus aureus (GC 4542),[2],128 µg/mL
same,MIC Staphylococcus aureus (GC 4544),[2],128 µg/mL
same,MIC Staphylococcus aureus (GC 4545),[2],128 µg/mL
same,MIC Staphylococcus aureus-SMITH (GC 4543),[2],128 µg/mL
same,MIC Staphylococcus haemolyticus (GC 4546),[2],128 µg/mL
same,MIC Staphylococcus aureus (ATCC 29213),[2]; strain ATCC 29213,128 µg/mL
same,MIC Staphylococcus aureus (GC 1131),[2]; strain GC 1131,>128 µg/mL
same,MIC Staphylococcus aureus (GC 3051),[2]; strain GC 3051,128 µg/mL
same,MIC Staphylococcus aureus (GC 3053),[2]; strain GC 3053,>128 µg/mL
same,MIC Staphylococcus aureus (GC 4541),[2]; strain GC 4541,128 µg/mL
same,MIC Staphylococcus aureus (GC 4542),[2]; strain GC 4542,128 µg/mL
same,MIC Staphylococcus aureus-SMITH (GC 4543),[2]; strain GC 4543,128 µg/mL
same,MIC Staphylococcus aureus (GC 4544),[2]; strain GC 4544,128 µg/mL
same,MIC Staphylococcus aureus (GC 4545),[2]; strain GC 4545,128 µg/mL
same,MIC Staphylococcus haemolyticus (GC 4546),[2]; strain GC 4546,128 µg/mL
same,MIC Coagulase Negative Staphylococcus (GC 4547),[2]; strain GC 4547,128 µg/mL
same,MIC Coagulase Negative Staphylococcus (GC 4548),[2]; strain GC 4548,128 µg/mL
same,MIC Coagulase Negative Staphylococcus (GC 4549),[2]; strain GC 4549,64 µg/mL
same,MIC Coagulase Negative Staphylococcus (GC 4551),[2]; strain GC 4551,128 µg/mL
same,MIC Coagulase Negative Staphylococcus (GC 6257),[2]; strain GC 6257,64 µg/mL
same,MIC Streptococcus agalactiae (GC 4564),[3],128 µg/mL
same,MIC Streptococcus pneumoniae (ATCC 6301),[3],64 µg/mL
same,MIC Streptococcus pneumoniae (GC 1894),[3],32 µg/mL
same,MIC Streptococcus pneumoniae (GC 4565),[3],64 µg/mL
same,MIC Streptococcus pyogenes (GC 4563),[3],128 µg/mL
same,MIC Streptococcus pneumoniae (ATCC 6301),"[3]; inoculum 5×10^5 CFU/mL, strain ATCC 6301",64 µg/mL
same,MIC Streptococcus pneumoniae (GC 1894),"[3]; inoculum 5×10^5 CFU/mL, strain GC 1894",32 µg/mL
same,MIC Streptococcus pyogenes (GC 4563),"[3]; inoculum 5×10^5 CFU/mL, strain GC 4563",128 µg/mL
same,MIC Streptococcus agalactiae (GC 4564),"[3]; inoculum 5×10^5 CFU/mL, strain GC 4564",128 µg/mL
same,MIC Streptococcus pneumoniae (GC 4565),"[3]; inoculum 5×10^5 CFU/mL, strain GC 4565",64 µg/mL
same,MIC Enterococcus avium (GC 4558),[4],>128 µg/mL
same,MIC Enterococcus faecalis (ATCC 29212),[4],>128 µg/mL
same,MIC Enterococcus faecalis (GC 2242),[4],>128 µg/mL
same,MIC Enterococcus faecalis (GC 2691),[4],>128 µg/mL
same,MIC Enterococcus faecalis (GC 3059),[4],>128 µg/mL
same,MIC Enterococcus faecalis (GC 4552),[4],>128 µg/mL
same,MIC Enterococcus faecalis (GC 4553),[4],>128 µg/mL
same,MIC Enterococcus faecalis (GC 4554),[4],>128 µg/mL
same,MIC Enterococcus faecalis (GC 6189),[4],>128 µg/mL
same,MIC Enterococcus faecium (GC 2243),[4],>128 µg/mL
same,MIC Enterococcus faecium (GC 4556),[4],>128 µg/mL
same,MIC Enterococcus faecium (GC 4557),[4],64 µg/mL
same,MIC Enterococcus faecalis (ATCC 29212),[4]; strain ATCC 29212,>128 µg/mL
same,MIC Enterococcus faecium (GC 2243),[4]; strain GC 2243,>128 µg/mL
same,MIC Enterococcus faecalis (GC 4552),[4]; strain GC 4552,>128 µg/mL
same,MIC Enterococcus faecalis (GC 4553),[4]; strain GC 4553,>128 µg/mL
same,MIC Enterococcus faecalis (GC 4554),[4]; strain GC 4554,>128 µg/mL
same,MIC Enterococcus faecium (GC 4556),[4]; strain GC 4556,>128 µg/mL
same,MIC Enterococcus faecium (GC 4557),[4]; strain GC 4557,64 µg/mL
same,MIC Enterococcus avium (GC 4558),[4]; strain GC 4558,>128 µg/mL
same,MIC Enterococcus faecalis (GC 6189),[4]; strain GC 6189,>128 µg/mL
same,MIC Enterococcus faecalis (GC 2242),"[4]; inoculum 5×10^5 CFU/mL, strain GC 2242",>128 µg/mL
same,MIC Enterococcus faecalis (GC 2691),"[4]; inoculum 5×10^5 CFU/mL, strain GC 2691",>128 µg/mL
same,MIC Enterococcus faecalis (GC 3059),"[4]; inoculum 5×10^5 CFU/mL, strain GC 3059",>128 µg/mL
"CC(=O)OCC1OC(OC2C(CO)OC(Oc3ccc(CC4NC(=O)C(C(C)c5ccccc5)NC(=O)CNC(=O)C(CO)NC(=O)C(C(O)C5CNC(=N)N5C5OC(CO)C(O)C(O)C5O)NC(=O)C(C(O)C5CNC(=N)N5)NC4=O)cc3)C(O)C2O)C(O)C(OC(=O)CCC(C)C)C1O (stereo not drawn) [Example 270b, Cyclo[glycyl-β-methylphenylalanyl-O-[4-O-[6-O-acetyl-3-O-(4-methylpentanoyl)hexopyranosyl]hexopyranosyl]tyrosyl-3-(2-iminoimidazolidin-4-yl)seryl-3-(3-hexopyranosyl-2-iminoimidazolidin-4-yl)serylseryl]]",MIC Coagulase Negative Staphylococcus (GC 4547),[2],4 µg/mL
same,MIC Coagulase Negative Staphylococcus (GC 4548),[2],4 µg/mL
same,MIC Coagulase Negative Staphylococcus (GC 4549),[2],4 µg/mL
same,MIC Coagulase Negative Staphylococcus (GC 4551),[2],4 µg/mL
same,MIC Staphylococcus aureus (ATCC 29213),[2],8 µg/mL
same,MIC Staphylococcus aureus (GC 1131),[2],8 µg/mL
same,MIC Staphylococcus aureus (GC 4541),[2],8 µg/mL
same,MIC Staphylococcus aureus (GC 4542),[2],8 µg/mL
same,MIC Staphylococcus aureus (GC 4544),[2],8 µg/mL
same,MIC Staphylococcus aureus (GC 4545),[2],4 µg/mL
same,MIC Staphylococcus aureus-SMITH (GC 4543),[2],4 µg/mL
same,MIC Staphylococcus haemolyticus (GC 4546),[2],4 µg/mL
same,MIC Staphylococcus aureus (ATCC 29213),[2]; strain ATCC 29213,8 µg/mL
same,MIC Staphylococcus aureus (GC 1131),[2]; strain GC 1131,8 µg/mL
same,MIC Staphylococcus aureus (GC 4541),[2]; strain GC 4541,8 µg/mL
same,MIC Staphylococcus aureus (GC 4542),[2]; strain GC 4542,8 µg/mL
same,MIC Staphylococcus aureus (GC 4544),[2]; strain GC 4544,8 µg/mL
same,MIC Staphylococcus aureus (GC 4545),[2]; strain GC 4545,4 µg/mL
same,MIC Staphylococcus haemolyticus (GC 4546),[2]; strain GC 4546,4 µg/mL
same,MIC Coagulase Negative Staphylococcus (GC 4547),[2]; strain GC 4547,4 µg/mL
same,MIC Coagulase Negative Staphylococcus (GC 4548),[2]; strain GC 4548,4 µg/mL
same,MIC Coagulase Negative Staphylococcus (GC 4549),[2]; strain GC 4549,4 µg/mL
same,MIC Coagulase Negative Staphylococcus (GC 4551),[2]; strain GC 4551,4 µg/mL
same,MIC Staphylococcus aureus-SMITH (GC 4543),[2]; strain SMITH GC 4543,4 µg/mL
same,MIC Escherichia coli (ATCC 25922),[5]; Escherichia coli (ATCC 25922),>64 µg/mL
same,MIC Escherichia coli (GC 4559),[5]; Escherichia coli (GC 4559),>64 µg/mL
same,MIC Escherichia coli (GC 4560),[5]; Escherichia coli (GC 4560),4 µg/mL
same,MIC Streptococcus agalactiae (GC 4564),[3]; strain GC 4564,2 µg/mL
same,MIC Streptococcus pyogenes (ID-3187),[3]; strain ID-3187,2 µg/mL
same,MIC Enterococcus avium (GC 4558),[4]; Enterococcus avium (GC 4558),32 µg/mL
same,MIC Enterococcus faecalis (ATCC 29212),[4]; Enterococcus faecalis (ATCC 29212),32 µg/mL
same,MIC Enterococcus faecalis (GC 4553),[4]; Enterococcus faecalis (GC 4553),32 µg/mL
same,MIC Enterococcus faecalis (GC 4554),[4]; Enterococcus faecalis (GC 4554),32 µg/mL
same,MIC Enterococcus faecium (GC 2243),[4]; Enterococcus faecium (GC 2243),32 µg/mL
same,MIC Enterococcus faecium (GC 4556),[4]; Enterococcus faecium (GC 4556),32 µg/mL
same,MIC Enterococcus faecium (GC 4557),[4]; Enterococcus faecium (GC 4557),8 µg/mL
same,MIC Enterococcus faecalis (ATCC 29212),[4]; strain ATCC 29212,32 µg/mL
same,MIC Enterococcus faecalis (GC 2242),[4]; strain GC 2242,16 µg/mL
same,MIC Enterococcus faecium (GC 2243),[4]; strain GC 2243,32 µg/mL
same,MIC Enterococcus faecalis (GC 4552),[4]; strain GC 4552,32 µg/mL
same,MIC Enterococcus faecalis (GC 4553),[4]; strain GC 4553,32 µg/mL
same,MIC Enterococcus faecalis (GC 4554),[4]; strain GC 4554,32 µg/mL
same,MIC Enterococcus faecium (GC 4556),[4]; strain GC 4556,32 µg/mL
same,MIC Enterococcus faecium (GC 4557),[4]; strain GC 4557,8 µg/mL
same,MIC Enterococcus avium (GC 4558),[4]; strain GC 4558,32 µg/mL
